Source: the supplement of paper PMC11061612

Assays:
Experiment in all cases: Bliss excess, mean over the matrix (fraction); higher = more synergy
[1] = test system: KYSE-150 (Esophageal Squamous Cell Carcinoma)
Method in brief: (§1)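 Bliss excess equals the observed combination effect minus the expected value EA + EB − EA·EB, where EA and EB are the effects of each agent alone. Combination Emax is the second-highest inhibition within the matrix. Inhibition was scaled from CellTiter-Glo 2.0 luminescence, with 0 set by vehicle wells and 1 by blank wells, after 72 hours of two-drug dosing of cells plated in 1536-well plates.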

[2] = test system: NCI-N87 (Gastric Carcinoma)
Method in brief: as §1

[3] = test system: EMC-BAC-2 (Non-Small Cell Lung Carcinoma)
Method in brief: as §1

NB7 (Neuroblastoma) = test system: NB7 (Neuroblastoma)
Method in brief: as §1

[4] = test system: OCUB-M (Breast Carcinoma)
Method in brief: as §1

GOTO (Neuroblastoma) = test system: GOTO (Neuroblastoma)
Method in brief: as §1

[5] = test system: PF-382 (T-Lymphoblastic Leukemia)
Method in brief: as §1

EW-3 (Ewing's Sarcoma) = test system: EW-3 (Ewing's Sarcoma)
Method in brief: as §1

[6] = test system: SCC-9 (Oral Cavity Carcinoma)
Method in brief: as §1

[7] = test system: SNU-C1 (Colorectal Carcinoma)
Method in brief: as §1

[8] = test system: VMRC-LCD (Lung Adenocarcinoma)
Method in brief: as §1

[9] = test system: NCI-H1573 (Lung Adenocarcinoma)
Method in brief: as §1

GI-1 (Glioblastoma) = test system: GI-1 (Glioblastoma)
Method in brief: as §1

[10] = test system: TGBC11TKB (Gastric Carcinoma)
Method in brief: as §1

EW-13 (Ewing's Sarcoma) = test system: EW-13 (Ewing's Sarcoma)
Method in brief: as §1

[11] = test system: NCI-H513 (Other Solid Carcinomas)
Method in brief: as §1

NH-12 (Neuroblastoma) = test system: NH-12 (Neuroblastoma)
Method in brief: as §1

EW-18 (Ewing's Sarcoma) = test system: EW-18 (Ewing's Sarcoma)
Method in brief: as §1

[12] = test system: LOU-NH91 (Squamous Cell Lung Carcinoma)
Method in brief: as §1

[13] = test system: KINGS-1 (Low Grade Glioma)
Method in brief: as §1

## CCc1c2c(nc3ccc(O)cc13)-c1cc3c(c(=O)n1C2)COC(=O)[C@]3(O)CC [SN-38] + O=C(c1cc(Cc2n[nH]c(=O)c3ccccc23)ccc1F)N1CCN(C(=O)C2CC2)CC1 [Olaparib] (first compound max 0.3 µM, 7x7, partner max 10 µM)
[1]
  Bliss excess: 0.0762
[2]
  Bliss excess: 0.0599
[3]
  Bliss excess: 0.0721
NB7 (Neuroblastoma)
  Bliss excess: 0.0625
[4]
  Bliss excess: 0.15
GOTO (Neuroblastoma)
  Bliss excess: -0.0014
[5]
  Bliss excess: 0.0471
EW-3 (Ewing's Sarcoma)
  Bliss excess: -0.0057
[6]
  Bliss excess: 0.0207
[7]
  Bliss excess: -0.0419
[8]
  Bliss excess: -0.0163
[9]
  Bliss excess: -0.0085
GI-1 (Glioblastoma)
  Bliss excess: 0.0652
[10]
  Bliss excess: 0.0814
EW-13 (Ewing's Sarcoma)
  Bliss excess: 0.0804
[11]
  Bliss excess: 0.0188
NH-12 (Neuroblastoma)
  Bliss excess: -0.0089
EW-18 (Ewing's Sarcoma)
  Bliss excess: 0.034
[12]
  Bliss excess: 0.0095
[13]
  Bliss excess: 0.0161
